Measurements reported in patent US20220267380A1, “Glycopeptides Increasing Lipid Synthesis” (TFCHEM, priority 2019, published 2022).

System: normal human dermal fibroblasts (NHDF)
Assay: Gene expression in NHDF, full transcriptome analysis with Affymetrix U219 microarray
Assay type: cell-based
Conditions: 10 mg/ml
Experimental: In the present study, the transcriptional effects (modulation of gene expression) of compounds 1, 2, 3 and 4 were evaluated on normal human dermal fibroblasts (NHDF) under basal conditions.
More specifically, the comparative analysis of the different transcriptomic profiles was performed using an Affymetrix GeneAtlas platform and the human “full transcriptome” U219 chip, which includes 36,000 transcripts and variants.
Fibroblasts were seeded in 24-well plates and cultured in culture medium for 24 hours. The medium was then replaced by assay medium and cells were incubated for further 24 hours. The medium was replaced by assay medium containing or not (control) the test compounds at different concentrations and the cells were preincubated for 24 hours. All experimental conditions were performed in triplicate. At the end of incubation, the culture supernatants were removed and the cells were washed in a phosphate buffered saline (PBS) solution and immediately frozen at −80° C.
Before RNA extraction, the replicates were pooled. Total RNA was extracted from each sample using TriPure Isolation Reagent® according to the supplier's instructions. The amount and quality of total RNA were evaluated for all samples using capillary electrophoresis (Bioanalyzer 2100, Agilent technologies). From each RNA, a labeled and amplified anti-sens RNA (aRNA) was obtained using GeneChip 3′IVT PLUS Kit (Affymetrix). For each labeled and amplified aRNA sample the profiles were evaluated before and after fragmentation using capillary electrophoresis (Bioanalyzer 2100, Agilent technologies). Hybridization of fragmented aRNA onto Affymetrix® U219 chip (36,000 transcripts and variants) was performed in the GeneAtlas™ fluidics Affymetrix® hybridization station for 20 hours at 45° C. U219 chip was analyzed using the GeneAtlas™ Imaging station (Affymetrix®—resolution 2 μm) to generate fluorescence intensity data.
Expression Console and Quality controls: data were normalized with the Expression Console (Affymetrix®) software using RMA algorithm. Then a quality control of the labeling and the hybridization was performed. Hybridization and labeling steps successfully passed the quality controls for these experiments.
Data reduction, Excel file description: once normalized with Expression Console, data were transferred into a Microsoft Excel® file in order to go further into data reduction.
Calculation and tools were added in order to rank and sort data, and finally to support data interpretation. Detection thresholds in terms of fold change were defined and applied on normalized data.
Results are considered and presented or commented per gene (and not probe). A probe set is a collection of probes designed to interrogate a given sequence of a gene. For data interpretation, the most important relative expression value obtained with one probe is considered to be representative of the corresponding gene. The file contains the following data: • Relative expression (RE) for each sample, • Fold change calculation, • Gene information.

[1] = relative expression adjusted to detection limit (<20), NHDF, 24 h
[2] = signed value, Tables 13-14, NHDF

C[C@H](NC(=O)[C@H](C)NC(=O)[C@@H](N)CCCCNCC(F)(F)[C@]1(O)O[C@H](CO)[C@H](O)[C@H](O)[C@H]1O)C(=O)O [Compound 1]
REadj2, PCYT2 [1]: 188.93 | REadj2, PLD1 [1]: 176.07 | REadj2, PTPLA [1]: 498.96 | REadj2, SOAT1 [1]: 390.22 | REadj2, SREBF1 [1]: 519.22 | REadj2, POR (relative expression adjusted to detection limit (<20), NHDF, 24 h, probe set 11716114_x_at): 256.70 | REadj2, HMGCS1 (relative expression adjusted to detection limit (<20), NHDF, 24 h, probe set 11716987_a_at): 875.52 | REadj2, EBP (relative expression adjusted to detection limit (<20), NHDF, 24 h, probe set 11717859_a_at): 582.73 | REadj2, FDPS (relative expression adjusted to detection limit (<20), NHDF, 24 h, probe set 11718366_s_at): 2391.43 | REadj2, MVK (relative expression adjusted to detection limit (<20), NHDF, 24 h, probe set 11719098_a_at): 135.62 | REadj2, PGS1 (relative expression adjusted to detection limit (<20), NHDF, 24 h, probe set 11724792_a_at): 118.91 | REadj2, KDSR (relative expression adjusted to detection limit (<20), NHDF, 24 h, probe set 11730180_s_at): 1037.81 | REadj2, KDSR (relative expression adjusted to detection limit (<20), NHDF, 24 h, probe set 11730181_s_at): 549.40 | REadj2, GBA (relative expression adjusted to detection limit (<20), NHDF, 24 h, probe set 11736100_a_at): 445.83 | REadj2, CHKA (relative expression adjusted to detection limit (<20), NHDF, 24 h, probe set 11736285_a_at): 104.91 | REadj2, CHKA (relative expression adjusted to detection limit (<20), NHDF, 24 h, probe set 11736286_a_at): 120.28 | REadj2, PHLDB2 (relative expression adjusted to detection limit (<20), NHDF, 24 h, probe set 11737039_a_at): 119.06 | REadj2, PHLDB2 (relative expression adjusted to detection limit (<20), NHDF, 24 h, probe set 11737041_a_at): 128.19 | REadj2, PHLDB2 (relative expression adjusted to detection limit (<20), NHDF, 24 h, probe set 11737042_s_at): 120.07 | REadj2, PHLDB2 (relative expression adjusted to detection limit (<20), NHDF, 24 h, probe set 11737043_x_at): 178.68 | REadj2, NPC1 (relative expression adjusted to detection limit (<20), NHDF, 24 h, probe set 11743916_a_at): 361.48 | REadj2, FADS1///MIR1908 (relative expression adjusted to detection limit (<20), NHDF, 24 h, probe set 11745459_a_at): 1633.20 | REadj2, NPC1 (relative expression adjusted to detection limit (<20), NHDF, 24 h, probe set 11746723_a_at): 192.21 | REadj2, MVK (relative expression adjusted to detection limit (<20), NHDF, 24 h, probe set 11747747_a_at): 83.27 | REadj2, POR (relative expression adjusted to detection limit (<20), NHDF, 24 h, probe set 11748368_x_at): 269.37 | REadj2, PGS1 (relative expression adjusted to detection limit (<20), NHDF, 24 h, probe set 11748428_a_at): 84.52 | REadj2, EBP (relative expression adjusted to detection limit (<20), NHDF, 24 h, probe set 11749332_x_at): 445.85 | REadj2, GBA (relative expression adjusted to detection limit (<20), NHDF, 24 h, probe set 11750975_x_at): 439.06 | REadj2, GBA (relative expression adjusted to detection limit (<20), NHDF, 24 h, probe set 11751085_a_at): 451.06 | REadj2, GBA (relative expression adjusted to detection limit (<20), NHDF, 24 h, probe set 11751086_x_at): 338.51 | REadj2, KDSR (relative expression adjusted to detection limit (<20), NHDF, 24 h, probe set 11751627_a_at): 533.05 | REadj2, FADS1///MIR1908 (relative expression adjusted to detection limit (<20), NHDF, 24 h, probe set 11752670_a_at): 2502.62 | REadj2, GBA (relative expression adjusted to detection limit (<20), NHDF, 24 h, probe set 11753440_x_at): 229.00 | REadj2, HMGCS1 (relative expression adjusted to detection limit (<20), NHDF, 24 h, probe set 11754918_s_at): 929.88 | REadj2, FADS1///MIR1908 (relative expression adjusted to detection limit (<20), NHDF, 24 h, probe set 11755251_x_at): 1571.10 | REadj2, FDPS (relative expression adjusted to detection limit (<20), NHDF, 24 h, probe set 11758249_s_at): 2098.38 | Fold change, ABCA1 [2]: 2.112 | Fold change, ABHD5 [2]: 2.634 | Fold change, ACAT2 [2]: 2.124 | Fold change, ACSS2 [2]: 2.288 | Fold change, ADORA2B [2]: 2.461 | Fold change, AKR1B1 [2]: 4.194 | Fold change, AKR1C1/AKR1C2 [2]: 2.597 | Fold change, ALDH1A3 [2]: −3.504 | Fold change, ANGPT1 [2]: −2.510 | Fold change, CD9 [2]: 2.337 | Fold change, CH25H [2]: −2.770 | Fold change, CHKA [2]: 2.999 | Fold change, CLN3 [2]: 2.570 | Fold change, CYP19A1 [2]: 2.736 | Fold change, CYP51A1 [2]: 2.202 | Fold change, DHCR7 [2]: 3.675 | Fold change, DHCR24 [2]: 2.267 | Fold change, EBP [2]: 2.685 | Fold change, EGR1 [2]: −2.928 | Fold change, FADS1 [2]: 4.196 | Fold change, FADS2 [2]: 2.642 | Fold change, FDPS [2]: 2.104 | Fold change, FGF2 [2]: 2.008 | Fold change, FOS [2]: −2.521 | Fold change, GBA [2]: 3.016 | Fold change, GPER1 [2]: 2.031 | Fold change, GRP [2]: −2.699 | Fold change, HMGCR [2]: 2.018 | Fold change, HMOX1 [2]: 5.168 | Fold change, HSD3B7 [2]: 2.132 | Fold change, HSD17B7 [2]: 2.443 | Fold change, HTR2B [2]: 2.118 | Fold change, IDI1 [2]: 2.013 | Fold change, IGFBP2 [2]: −2.717 | Fold change, INSIG1 [2]: 3.422 | Fold change, KDSR [2]: 2.288 | Fold change, LDLR [2]: 2.988 | Fold change, LPIN1 [2]: 2.458 | Fold change, LSS [2]: 2.527 | Fold change, MAP3K8 [2]: 3.713 | Fold change, ME1 [2]: 2.548 | Fold change, MVD [2]: 2.448 | Fold change, MVK [2]: 2.082 | Fold change, NGF [2]: −2.648 | Fold change, NPC1 [2]: 6.532 | Fold change, NRG1 [2]: −2.111 | Fold change, NSMAF [2]: 2.624 | Fold change, NTN1 [2]: 2.832 | Fold change, PCYT2 [2]: 2.412 | Fold change, PDE5A [2]: −3.902 | Fold change, PDK4 [2]: −2.280 | Fold change, PGS1 [2]: 2.410 | Fold change, PLAU [2]: −2.785 | Fold change, PLD1 [2]: 2.155 | Fold change, POR [2]: 2.200 | Fold change, PTGS1 [2]: 3.893 | Fold change, RAB27A [2]: 2.279 | Fold change, RUNX1 [2]: 2.441 | Fold change, S1PR1 [2]: 2.651 | Fold change, SCD [2]: 7.772 | Fold change, SEMA3A [2]: −3.169 | Fold change, SERINC2 [2]: 2.635 | Fold change, SLC1A3 [2]: 4.715 | Fold change, SOAT1 [2]: 2.012 | Fold change, SOCS3 [2]: 3.734 | Fold change, SREBF1 [2]: 3.237 | Fold change, ST6GALNAC5 [2]: 2.080 | Fold change, STC1 [2]: 3.016
